The source of these data is patent US12509373B2, “Composition and method for the removal of biofilm” (LANXESS Corporation, priority 2020, dated 2025).

Assay [1] has as its system Desulfovibrio vulgaris biofilm. Kind of assay: Biofilm removal, Crystal Violet Assay (anaerobic, 24 h treatment of pre-formed biofilm). The class given is cell-based. As for the experimental part:
A lyophilized D. vulgaris pure culture received from ATTCC was resuspended in 500 ul of MB 1249. Aseptically, the content was transferred to a 5¬mL tube of MB1249 medium. The culture was incubated in an anaerobic chamber at 30° C. for 72 hrs. Subsequently, a stock culture with a final concentration of 25% glycerol was prepared by adding equal volumes of culture and 50% glycerol. 1 ml of culture was then transferred to 2-ml cryogenic vials and stored AT-80c. The purity of the stock culture was evaluated through PCR, by amplifying the 16S rDNA region, and thus, it was verified that the original ATCC sample was a pure culture.
A 10% culture was prepared by taking 1 mL of stock culture and adding it to 9 mL of MB1249, then the culture was placed into a 30° C. side incubator within the chamber and incubated for 72 hours. After 72 hours of incubation, the 10-ml D. vulgaris culture was added to 40 ml of MB1249 medium and incubated for 48 hours. After the incubation time, the optical density of the culture was determined by taking 100 μL of culture and adding it to 900 μL of MB1249 in a cuvette. Another cuvette was filled with 1 mL of MB1249 for a blank. Then, each of culture cuvettes were read and their optical density (O.D.) was recorded by using the Thermofisher Spectronic 200 Spectrophotometer at 620 nm. Using a C1V1=C2V2 calculation and the optical density, the final concentration of culture added to the 96 well plates was ˜0.1 O.D. Then, NUNC Round bottom 96 well plates were filled with culture and anaerobic PBS+10% MB1249. The plates were placed into the side incubator of the anaerobic chamber at 30° C. for 24 hours to form biofilm.
After 24 hours of incubation at 30° C., all plates were removed from the incubator and the volume from each well was taken out with a multi-channel pipette. Then, the wells were re-filled with PBS+10% MB1249 and treatments.
The sugar analogues used in the treatment were α-Methyl D-Mannoside (αMM) and 2-Deoxy-D-Glucose (2DG). Both αMM and 2DG were purchased from Sigma. Stocks were prepared (W/V) by weighing sugar and adding anaerobic water inside the anaerobic chamber. The Glutaraldehyde, AQUCAR™ GA50 (“Glutaraldehyde”), was prepared outside of the chamber (V/V) as a safety measure. Each of the components were added at their respective concentrations for a final volume of 200 ul per well. In Table 3, the concentrations used for the synergy experiments are listed. Each experiment was done with at least six replicates for different treatments and at least 8 replicates for non-treatment controls.
Plates were then sealed with a titer-top and placed into anaerobic boxes with a gas pack. Then, incubated in an aerobic shaking incubator, 30° C. at 115 RPM. After 24 hours, the plates were processed using a Crystal Violet Assay.
After 24 hours of treatment, all the treatment solution was gently removed from plates using a multi-channel pipette. Then, 250 μL of DI water was re-filled into the wells. This step was then repeated so the plates were each rinsed twice. If residual DI water was in plates, they were inverted and gently patted onto a thick paper towel. Then, the plates were air dried in a ventilated hood.
To fix the biofilm in the wells, 250 μL per well of methanol was used, waiting time 5 minutes. This methanol was then removed and allowed to air dry. […] Then, the plates were placed into the Biotek Cytation 5, and the optical density (OD) was read at 600 nm. […]

The subject of assay [2] is anaerobic D. vulgaris biofilms. The following applies: high levels of sugar analogs needed; WO2019/018087; cited from earlier work.

As to `CO[C@H]1O[C@H](CO)[C@@H](O)[C@H](O)[C@@H]1O` [αMM, α-Methyl D-Mannoside], the “% OD compared to no-treatment control” value in assay [1] (standalone, 2000 ppm) worked out at 100.3%. The “dispersal of anaerobic D. vulgaris biofilms” value in assay [2] is given as “disperse anaerobic D. vulgaris biofilms”.
In the case of `O=CC[C@@H](O)[C@H](O)[C@H](O)CO` [2DG, 2-Deoxy-D-Glucose], in assay [1] (standalone, 2000 ppm), the “% OD compared to no-treatment control” value is recorded as 101.7%. Moreover, the “dispersal of anaerobic D. vulgaris biofilms” value in assay [2] is on record as “disperse anaerobic D. vulgaris biofilms”.
`O=CCCCC=O` [Glutaraldehyde]: the “% OD compared to no-treatment control” value in assay [1] (Glutaraldehyde 25 ppm alone (2DG 0 ppm), 2DG combination experiment) was found to be 92.7%; in assay [1] (Glutaraldehyde 25 ppm alone (αMM 0 ppm), αMM combination experiment) it was 99.3%; in assay [1] (standalone, 2500 ppm), 97.4%.
